Assay results reported in US8841269B2, “Polynucleotides for use in treating and diagnosing cancers” (Creighton University, priority 2010, dated 2014).
“Also recorded” adds a separate entry of the source.

Columns and labels:
[1] = tested on: MCF7 cells; experiment: MTT cell proliferation assay in MCF7; type: cell-based, human; conditions: for cell growth (MTT) with E2: MCF7, E2 free medium with addition of 10 nmol/L E2; for cell growth (MTT): MCF7, E2 free medium with or without addition of 10 nmol/L E2 (FIG. 9B-D); for day from which significant effect on proliferation was detected / cell proliferation (MTT): MCF7, normal growth medium; for cell proliferation (MTT): 60 nmol/L
Protocol: MTT cell proliferation assay. MCF7 cells were transfected with let-7 mimics or negative controls (60 nmol/L) in normal growth medium for 1 day, or in medium with 2.5% charcoal-stripped FBS for 2 days to exhaust endogenous estrogen, following the protocol of siPORT NeoFX Transfection Agent (Applied Biosystems). For the experiment in normal growth medium, 10^4 cells in the volume of 100 μL were seeded in a 96-well plate for 12 hours and assay lasted for another 4 days. For experiments in E2 free medium, 1.5 10^4 cells were seeded in a 96-well plate for 12 hours and then exposed to 10 nmol/L E2, or not, for up to 4 days. For both experiments, each treatment had 12 replicates on the plate. The cells were then incubated in 0.83 mg/mL 3-[4,5-dimethylthiazol-2-yl]-2,5-diphenyltetrazolium bromide (MTT) in growth medium at 37° C. for 4 h and lysed in 100 μL of DMSO at room temperature for 15 min. The absorbance in each well was measured at 490 nm by an ELx800 Absorbance Microplate Reader (Biotek). Cell proliferation was normalized to day 0.

[2] = tested on: 3′ UTR of human ER-α36 gene; experiment: Luciferase reporter assay, ER-α36 3′ UTR let-7 binding site in pMIR-REPORT; type: cell-based; conditions: MCF7 cells; for luciferase activity, ER-α36 3′-UTR binding site: 60 nmol/L mimics
Excerpt: A fragment of the 3′ UTR of human ER-α36 gene, which harbors the putative let-7 target sites, was synthesized (IDT, Coralville, Iowa). With the SpeI and HindIII restriction sites at the ends, respectively, the sense strand is 5′-ctag[…] (SEQ ID NO:41) and the antisense strand is 5′-agct[…] (SEQ ID NO:42). The sense and antisense oligonucleotides were annealed and ligated into the SpeI/HindIII sites of the pMIR-REPORT luciferase vector (Ambion, Austin, Tex.). The sequences were verified by DNA sequencing. Transfection was performed in 24-well plate using Lipofectamine 2000 (Invitrogen). Let-7 mimics, anti-let-7 inhibitors, or negative controls were transfected with 0.25 μg luciferase construct and 0.25 μg β-galactosidase plasmid (Ambion) to check transfection efficiency. Twenty-four hours post-transfection, the luciferase activity was measured using Dual-Glo Luciferase Assay System (Promega, Fitchburg, Wis.) in Veritas Microplate Luminometer (Turner Biosystems, Sunnyvale, Calif.).

[3] = Real-time PCR of let-7 levels after mimic transfection (Example 2); type: cell-based, human
Protocol: To analyze mature let-7 miRNAs with real-time PCR, total RNA was isolated from the cell lines using mirVana miRNA isolation kit (Ambion Inc., Austin, Tex.) or from FFPE tissues using the miRNeasy FFPE Kit (Qiagen, Valencia, Calif.) following the manufacturer's instructions. We collected FFPE breast tissues from 13 benign, 16 ductal carcinomas in situ (DCIS), and 15 invasive ductal carcinomas (IDC), all of which were prepared as 50 μm thick sheets. The benign breast tissues were from surgical resections of abnormal breast lesions with non-neoplastic phenotypes such as calcification, fibrocystic changes or stromal fibrosis. cDNA was synthesized using 100 ng total RNA in a reaction volume of 15 μL and following the protocol of Taqman microRNA reverse transcription kit (Applied Biosystems, Foster City, Calif.). After 15 dilution, 9 μl, cDNA mixture was used for real-time PCR in 20 μL reaction volume, including 10 μL of TaqMan universal PCR master mix (no ampErase UNG) and 1 μL Taqman probe (Applied Biosystems, Foster City, Calif.). Real-time PCR was performed on 7900HT realtime PCR instrument (Applied Biosystems). PCR was initiated by two holds of 52° C. 2 min and 94° C. 10 min each, followed by 40 cycles of 15 s at 95° C. and 1 min at 60° C. The level of each miRNA was expressed following the 2^−ΔCt method using the small nuclear RNA RNU48 as the internal reference.
Let-7 miRNA or negative control #1 miRNA of 60 nmol/L (Ambion, Austin, Tex.) was transfected into cells with the siPORT NeoFX reagent (Ambion, Austin, Tex.) following the manufacturer's protocol.

[4] = tested on: ERK1/2; experiment: Estrogen induced ERK1/2 activation (phos-ERK Western blot) in MDA-MB-231; type: cell-based, human; conditions: MDA-MB-231, 10 nmol/L E2 after estrogen starvation
Protocol: After mixed with gel-loading buffer and boiled for 5 minutes, the protein samples were separated with 10% SDS-PAGE and transferred to a PVDF membrane (Millipore, Billerica, Mass.). The blots were probed with specific first antibodies and appropriate second antibodies. The blots were visualized with enhanced chemiluminescence (ECL) reagents (Pierce, Minneapolis, Minn.) and documented with a Fluor Chem FC2 (Alpha Innotech, Santa Clara, Calif.) image system. Gel density was quantified with Quantity One and expressed as a relative value against β-actin. The anti-ERK1/2 (#9102) and antipERK1/2 (#9106) were purchased from Cell Signaling Technology (Danvers, Mass.). Anti-ER-α66 (RB-9016) was obtained from Thermoscientific (Rockford, Ill.). Anti-ER-α36 antibody was an affinity-purified rabbit polyclonal anti-ER-36 antibody generated as a custom service from Pacific Immunology Corp (Ramona, Calif.). The ER-α36 antibody was raised against a synthetic peptide antigen corresponding to the unique C-terminal 20 aa of ER-α36.
ER-α36 is mainly localized on the plasma membrane and mediates the non-genomic estrogen pathways (Wang et al., 2005, Biochem. Biophys. Res. Commun. 336:1023-7, Wang et al., 2006, Proc. Natl. Acad. Sci. U.S.A., 103:9063-8). We reasoned that the inhibition on ER-α36 expression by let-7 family miRNAs might dampen the non-genomic estrogen pathway. […]

[5] = MCF7-Tam, 6 days after transfection, vs negative control
[6] = MCF7-Tam, two days after transfection
[7] = MDA-MB-231, after 2 days, vs negative control cells

Row | Substance | cell growth (MTT) with E2 [1] | cell growth (MTT) [1] | day from which significant effect on proliferation was detected [1] | cell proliferation (MTT) [1] | luciferase activity, ER-α36 binding site [2] | luciferase activity, mutated ER-α36 binding sequence [2] | luciferase activity, ER-α36 3′-UTR binding site [2] | increase of let-7 level after mimic transfection [3, 5] | increase of let-7 level after mimic transfection [3, 6] | increase of let-7 level after mimic transfection [3, 7] | estrogen induced activation of the ERK1/2 (nongenomic estrogen pathway) [4]
1 | let-7b: let-7b miRNA (mimic), 3′-UUGGUGUGUUGGAUGAUGGAGU-5′ (SEQ ID NO:8) (chemistry not given here; listed 3' to 5') | consistent inhibition | strongly inhibited | 2 days | significantly inhibited cell proliferation | significantly inhibited the luciferase activity | abrogated the inhibitory effects; also recorded: did not show inhibition | about 60 % of the activity in the control cells | 100 fold | ~600 fold | ~400 fold | significantly inhibited
2 | let-7i: let-7i miRNA (mimic), 3′-UUGUCGUGUUUGAUGAUGGAGU-5′ (SEQ ID NO:14) (chemistry not given here; listed 3' to 5') | consistent inhibition | strongly inhibited | 3 days | significantly inhibited cell proliferation | significantly inhibited the luciferase activity | abrogated the inhibitory effects; also recorded: did not show inhibition | about 60 % of the activity in the control cells | 100 fold | ~300 fold | ~200 fold | significantly inhibited
